From paper PMC11687724, “Mechanism of connexin channel inhibition by mefloquine and 2-aminoethoxydiphenyl borate” (PLOS ONE, 2024)

What was measured:
Cx43 = biological target: T1, Cx43 (Homo sapiens, UniProt P17302); assay: cryo-EM of Cx43 GJC at […] Å; gap-FRAP in HEK293F cells; type: binding
T1 construct: gene GJA1; Cx43 gap junction channel

Cx32 [1] = biological target: T2, Cx32 (Homo sapiens, UniProt P08034); assay: tryptophan fluorescence quenching; cryo-EM of Cx32 GJC at […] Å; dye uptake and gap-FRAP; type: binding; parameters: gene GJB1; purified Cx32 (gap junction channel)
Cx32 [2] = biological target: T2, Cx32; assay: biochemical; parameters: gene GJB1

T2 sequence (P08034 whole entry): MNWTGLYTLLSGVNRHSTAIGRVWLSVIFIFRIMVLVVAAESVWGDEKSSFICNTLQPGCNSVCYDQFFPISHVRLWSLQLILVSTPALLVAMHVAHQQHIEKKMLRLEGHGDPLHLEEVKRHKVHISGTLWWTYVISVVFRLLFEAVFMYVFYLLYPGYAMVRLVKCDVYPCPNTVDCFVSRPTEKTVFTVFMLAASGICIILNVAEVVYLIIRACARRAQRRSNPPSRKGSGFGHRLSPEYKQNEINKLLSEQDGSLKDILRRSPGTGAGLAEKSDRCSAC
T1 sequence (P17302 2-382): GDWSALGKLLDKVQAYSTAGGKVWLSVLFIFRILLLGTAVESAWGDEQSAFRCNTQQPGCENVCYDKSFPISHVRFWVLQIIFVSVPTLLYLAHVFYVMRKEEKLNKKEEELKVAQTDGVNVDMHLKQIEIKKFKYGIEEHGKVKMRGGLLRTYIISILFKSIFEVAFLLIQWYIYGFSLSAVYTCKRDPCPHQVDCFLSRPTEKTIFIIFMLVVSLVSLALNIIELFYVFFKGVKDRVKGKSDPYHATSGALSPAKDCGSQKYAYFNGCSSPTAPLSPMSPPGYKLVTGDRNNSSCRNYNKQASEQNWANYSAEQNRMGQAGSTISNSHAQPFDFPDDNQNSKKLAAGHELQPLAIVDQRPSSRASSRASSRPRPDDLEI

Row | Kd (Cx32 [1]) | Kd (Cx32 [2]) | Compound | cryo-EM of Cx43 GJC at 3.7 Å; gap-FRAP in HEK293F cells (Cx43)
1 | 43.1 µM | – | O[C@H](c1cc(C(F)(F)F)nc2c(C(F)(F)F)cccc12)[C@@H]1CCCCN1 (racemic) [MFQ, mefloquine] | a prominent additional density corresponding to MFQ was observed within the region corresponding to site M
2 | – | 1.05 µM | NCCOB(c1ccccc1)c1ccccc1 [2APB, 2-aminoethoxydiphenyl borate] | –
